Experimental findings from patent US8771983B2, “Method and kit for expressing protein under regulation of the expression from repeated sequence formed by gene amplification, and transformant” (National University of Corporation Hiroshima University, priority 2004, dated 2014) are described below.

The subject of data set [1] is expression of d2EGFP in human colon cancer cell COLO 320DM cells. The data set is described as follows: Level of expression of d2EGFP by cell sorter after selection with stepwise increasing Blasticidin concentrations (Example 3). The format is cell-based. Conditions: 1 μg/ml Doxycycline. On the procedure:
(§1) Fluorescence intensity of these cells were measured by using a cell sorter. The measurement was carried out by sorting 20,000 cells by setting living cells at a gate. The cell sorter used was made by Becton Dickinson, and operated under conditions as described in the manual attached thereto.
(§2) In this method for detecting the fluorescence intensity, detection limit was 1, and all fluorescence intensities of 1 or less would be detected as 1. In view of this, a product of a ratio (cell %) of cells of fluorescence intensities of 2 or more in all living cells (10,000 cells) and an average of the fluorescence intensities of the cells having fluorescence intensities of 2 or more was calculated out for each experimental plot. This product is referred to as “accumulated fluorescence intensity” hereinafter and in later Examples and shown in boxed letter in the figures.
A plasmid (pSFVdhfr/d2EGFP) was transfected into human colon cancer cell COLO 320DM cells by lipofection. The plasmid (pSFVdhfr/d2EGFP) was a plasmid having (a) IR and MAR derived from human DHFR gene locus, (b) Blasticidin tolerance gene, and (c) d2EGFP gene that was under control of TRE-promoter (Tetracycline inducing promoter). The transformed cells were selected with 5 μg/ml of Blasticidin (Funakoshi Corp.) thereby obtaining many transformed clones. After the clones were mixed, the culturing was continued. […] Cells select with the respective Blasticidin concentrations were treated with 1 μg/ml of Doxycycline (Clontech Laboratories Inc.) added to the media so as to activate TRE-promoter and thereby inducing expression of d2EGFP (whose half-life is much shorter than general EGFP.

The test system of data set [2] is expression of d2EGFP in Tet-ON cells (COLO 320DM) transfected with pSFVdhfr/d2EGFP. The data set is described as follows: Level of expression of d2EGFP by cell sorter in HSR and DM clones of Tet-ON cells with 5-aza (Example 7). Format: cell-based, human. Conditions: polyclonal population of Tet-ON cells with pSFVdhfr/d2EGFP; 5 μg/ml of Doxycycline. On the procedure: as §1, §2
By lipofection, the pTet-ON plasmid (Clontech Laboratories Inc.) having Tet-ON gene encoding a transcription activating factor (Tet-ON protein) for promoting TRE-promoter was transfected into human colon cancer COLO 320DM. Transformed cells (hereinafter referred to as “Tet-ON cells”) which stably expressed Tet-ON protein, were selected with Hygromycin.
Next, the pSFVdhfr/d2EGFP plasmid was transfected into the Tet-ON cells by lipofection. The cells thus obtained were selected with 5 μg/ml of Blasticidin for approximately 3 weeks, thereby obtaining a polyclonal population of the stable transformed cells.
The expression of d2EGFP was induced in the polyclonal population by activating TRE-promoter by adding 5 μg/ml of Doxycycline (Clontech Laboratories Inc.) in the medium. FIG. 9 illustrates a result of analysis of the level of the expression of d2EGFP in this case by using a cell sorter. In FIG. 9, the value in parenthesis is an average of fluorescence intensities (i.e., average fluorescence intensity), and boxed value is an accumulated fluorescence intensity. Based on the result of FIG. 9, it was confirmed that the polyclonal population was a population for expressing d2EGFP (average fluorescence intensity: 6.25, accumulated fluorescence intensity: 536).
From the polyclonal population, given 30 clones were obtained by a limiting dilution method that was carried out by inoculating a clone to 6 well plates with such a low cell concentration of 30 cells/ml, and incubating the plates for 10 days to 2 weeks thereby obtaining colonies thereon.
From among the clones, 4 clones having high levels of expression of d2EGFP (Clone 4, Clone 5, Clone 6, and Clone 9) were selected by fluorescence microscopic observation. Mitotic chromosome samples of the 4 clones were prepared. By FISH method, detection for a base sequence derived from the transfected pSFVdhfr/d2EGFP plasmid was carried out. The preparation of mitotic chromosome samples and the FISH method were carried out as described in Shimizu, N., Kanda, T., and Wahl, G. M. Selective capture of acentric fragments by micronuclei provides a rapid method of purifying extrachromosomally amplified DNA. Nature Genet., 12: 65-71, 1996.
For 4 clones, induction with Doxycycline (Clontech Laboratories Inc.; 1 μg/ml) was carried out and 5-aza (0 μM, 1 μM or 3 μM) was added in the medium. After 1 week culturing, the level of expression of d2EGFP in each clone was analyzed by using a cell sorter.

Data set [3] has as its system expression of d2EGFP in human colon cancer COLO 320DM cells. Put plainly: Change over time of d2EGFP expression after induction with Doxycycline in cells cotransfected with pSFVdhfr/d2EGFP and pTet-ON plasmid (Example 8). The format is cell-based. Conditions: polyclonal population. How it is done:
as §1, §2
An equimolar mixture of a plasmid (pSFVdhfr/d2EGFP) and pTet-ON plasmid (Clontech Laboratories Inc.) was simultaneously transfected into human colon cancer COLO 320DM cells. The plasmid (pSFVdhfr/d2EGFP) was a plasmid having (a) IR and MAR derived from human DHFR gene locus, (b) Blasticidin tolerance gene, and (c) d2EGFP gene that was under control of TRE-promoter (Tetracycline inducing promoter). Meanwhile, the pTet-ON plasmid was a plasmid having Tet-ON gene encoding the transcription activating factor (Tet-ON protein) of TRE-promoter. The cells were selected with 5 μg/ml of Blasticidin thereby obtaining a polyclonal population of transformed cells. TRE-promoter was activated by adding 1 μg/ml of Doxycycline (Clontech Laboratories Inc.) in the medium of a cell culturing solution of the polyclonal population, thereby inducing the expression of d2EGFP.
Next, after the expression of d2EGFP was induced by Doxycycline, the level of the expression of d2EGFP was analyzed by using a cell sorter so as to find a change in the level of the expression of d2EGFP over time. […] In FIG. 16, the value in parenthesis is an average of fluorescence intensities (i.e., average fluorescence intensity), and boxed value is an accumulated fluorescence intensity.
FIG. 17 illustrates a graph plotting the averages (i.e., average fluorescence intensities: indicated by filled circles in FIG. 17) and living cell ratio (a ratio of living cells over total cell number: indicated by open circles) of the level of the expression of d2EGFP against time. […] The level was maintained high even after two weeks lapsed (labeled as “2wk” in FIG. 17).

For data set [4], the system named is expression of d2EGFP in human colon cancer cells COLO 320DM cells. The data set is described as follows: Level of expression of d2EGFP after treatment of cells with 5-aza-2′-deoxycytidine and/or Trichostatin A (Example 6). Format: cell-based. How it is done:
as §1, §2
A mixture of a plasmid (pSFVdhfr/d2EGFP) and the plasmid DNA having the Aves-derived HS4 insulator sequence was transfected to human colon cancer cells COLO 320DM cells by lipofection. The plasmid (pSFVdhfr/d2EGFP) was a plasmid having (a) IR and MAR derived from human DHFR gene locus, (b) Blasticidin tolerance gene, and (c) d2EGFP gene that was under control of TRE-promoter (Tetracycline inducing promoter). The plasmid DNA having the Aves-derived HS4 insulator sequence was identical with the one described in Example 2. From 2 days later since the gene transfection, the cells were selected with 5 μg/ml of Blasticidin (Funakoshi Corp.). After 3 to 4 weeks, many colonies of transformed cells were obtained.
Into a culture solution of the transformed cells, of 1 μM or 3 μM of 5-aza-2′ deoxycytidine (hereinafter referred to as “5-aza” where appropriate; Sigma) was added. Thereby, the cells were treated with 5-aza for 3 days. For comparison purposes, 20 nM of Trichostatin A (hereinafter referred to as “TSA” where appropriate; histone deacetylation inhibitor, Sigma), which is known as a material for increasing gene expression from the repeated sequence, was added to some culture solutions of the transformed cells and analyzed.

The mark [5] stands for this setting: pSFVdhfr/d2EGFP cells selected with 5 μg/ml of Blasticidin.
Setting [6] is: pSFVdhfr/d2EGFP cells selected with 40 μg/ml of Blasticidin.
The mark [7] stands for this setting: pSFVdhfr/d2EGFP cells selected with 160 μg/ml of Blasticidin.
Setting [8] is: pSFVdhfr/d2EGFP cells selected with 320 μg/ml of Blasticidin.
The mark [9] stands for this setting: fifteen hours after the addition of Doxycycline (1 μg/ml).
[10] abbreviates: forty eight hours (2 days) after the addition of Doxycycline (1 μg/ml).
Where [11] appears, read: one hour after the addition of Doxycycline (1 μg/ml).
The mark [12] stands for this setting: one hundred twenty hours (5 days) after the addition of Doxycycline (1 μg/ml).
Setting [13] is: six hours after the addition of Doxycycline (1 μg/ml).
Where [14] appears, read: three hours after the addition of Doxycycline (1 μg/ml).
The mark [15] stands for this setting: twenty four hours after the addition of Doxycycline (1 μg/ml).
Where [16] appears, read: two weeks after the addition of Doxycycline (1 μg/ml).

Molecules are shown by their SMILES.

Turning to `CN(CC[C@H](N)CC(=O)N[C@H]1C=C[C@H](n2ccc(N)nc2=O)O[C@@H]1C(=O)O)C(=N)N` [Blasticidin], the average fluorescence intensity in data set [1] (pSFVdhfr/d2EGFP cells selected with 10 ng/ml of Blasticidin) is 3.77; in data set [1] (setting [5]), 2.94; in data set [1] (setting [6]), 6.67; in data set [1] (setting [7]) it was 9.47; in data set [1] (setting [8]), 18.55. The accumulated fluorescence intensity in data set [1] (setting [5]) is 222; in data set [1] (setting [6]) it was 640; in data set [1] (setting [7]) it was 929; in data set [1] (setting [8]), 1850.
For the compound `C[C@H]1c2cccc(O)c2C(=O)C2=C(O)[C@]3(O)C(=O)C(C(N)=O)=C(O)[C@@H](N(C)C)[C@@H]3[C@@H](O)[C@@H]21` [Doxycycline], the accumulated fluorescence intensity in data set [2] was found to be 536; in data set [3] (setting [9]) it was 841; in data set [3] (setting [10]) it was 5320; in data set [3] (setting [11]), 216; in data set [3] (setting [12]), 3880; in data set [3] (setting [13]) it was 341. Also, the accumulated fluorescence intensity in data set [3] (setting [14]) was 293; in data set [3] (setting [15]) it was 2800; in data set [3] (setting [16]) it was 3500. For the same compound, the average fluorescence intensity stood at 6.25 in data set [2]; 9.24 in data set [3] (setting [9]); 53.97 in data set [3] (setting [10]); 2.99 in data set [3] (setting [11]); 39.56 in data set [3] (setting [12]); 4.22 in data set [3] (setting [13]). Also, the average fluorescence intensity in data set [3] (setting [14]) is recorded as 3.72; in data set [3] (setting [15]) it was 28.77; in data set [3] (setting [16]), 35.32. Moreover, in data set [3] (expression of d2EGFP induced by Doxycycline, up to two weeks), the “survival ratio of the cells (living cell ratio)” value is “no decrease in the survival ratio”.
In data set [4] (20 nM of TSA), `CC(/C=C/C(=O)NO)=C\[C@@H](C)C(=O)c1ccc(N(C)C)cc1` [TSA, Trichostatin A] yielded an accumulated fluorescence intensity of 228 and an average fluorescence intensity of 3.02. Further, the “effect on the expression of the target protein” value in data set [4] (20 nM of TSA versus cells before treatment) is “cannot increase the expression of the target protein”.
